Source: patent US7498161B2 (priority 2003, dated 2009)

Assays:
A2780 xenograft = experiment: Scheduling experiment: virus with or without CB1954, tumour volume in A2780 xenografts; assay type: in vivo, athymic nude mice; conditions: CB1954 alone, no virus, 80 mg/kg intra-peritoneal
Procedure: The inventors proceeded to investigate two doses of the virus in combination with CB1954. The doses selected were 10^5 PFU and 10^6 PFU. Both these doses caused some tumour growth delay in earlier experiments.
The prodrug is given as an 80 mg/kg intra-peritoneal injection, after dissolving the powdered form in 10% acetone and then making up the volume with peanut oil.
Mice were randomized into treatment groups (treatment regimes shown in Table 2) of 3 animals when tumour diameters were approximately 5 mm (tumour volume […]).
(§1) The treatment groups were administered with a single direct intratumoural injection of the virus and dose determined for that group. The virus was diluted PBS+10% serum. ‘No virus’ control groups received an intratumoural injection of 100 μl of PBS+10% serum. This day was designated as Experimental Day 0.
(§2) Injections of CB1954 were given to the appropriate groups at days 2, 10 and 15. A dose of 80 mg/kg—the equivalent of approx. 2 mg per mouse—was given. The powdered form of the CB1954 drug (from Sigma) was dissolved in acetone to 10% of the final volume (10 μl per 2 mg). The volume was then made up to 2 mg CB1954 in 100 μl using peanut oil. A syringe was used to mix the drug as peanut oil is thick and viscous. The drug was made up fresh every time.
The appropriate groups were then injected intra-peritoneal with this solution. […]

C8161 cells = assay type: cell-based, human; conditions: 50 μM CB1954 alone
[1] = Scheduling experiment: tolerability of the injections (weight, behaviour); assay type: in vivo, athymic nude mice; conditions: 80 mg/kg intra-peritoneal in 10% acetone/peanut oil
Procedure: FIG. 26. Weight (as a measurement of health) in athymic nude mice with A2780 xenograft treated with either HSV 1790, HSV 1716, CB 1954 or a combination of them.
as §1
Some tumours bleed slightly after injection but not to a great degree. […] In all the tumours that bleed slightly, the following day the healing process had begun and within 3-5 days there was little evidence of any puncture wound on any tumour.
as §2
The appropriate groups were then injected intra-peritoneal with this solution. Control groups which were not receiving drug were injected intra-peritoneal with a 100 μl solution of 10% acetone in peanut oil.

Compound: NC(=O)c1cc(N2CC2)c([N+](=O)[O-])cc1[N+](=O)[O-] [CB1954, 5-aziridin-1-yl-2,4-dinitrobenzamide]
- effect on tumour growth (A2780 xenograft): little effect on tumour growth
- effect on cells (C8161 cells): no effect
- behaviour after injection [1]: slightly lethargic for a short period after the injection
- body weight [1]: did not lose any body weight
- swelling or irritation at site of injection [1]: No swelling or irritation at the site of injection
